Structures can show the parent of a compound that is named as a salt. Where two headings read alike, the source gives them in different places.

The target of series [1] is T1, HIV-1 reverse transcriptase (RT) (Human immunodeficiency virus type 1 group M subtype B, UniProt P04585).
T1 construct: Recombinant HIV-1 reverse transcriptase (RT) was obtained from Worthington (Freehold, N.J.); purchased Worthington (Freehold, N.J.)
The series can be described thus: Inhibition of recombinant HIV-1 reverse transcriptase (TTP incorporation). The class given is biochemical. The settings on record: identical assay conditions. The procedure: (§1) Reverse transcriptase assays were performed as described by Flexner, et al. (25) using recombinant HIV-1 RT as the source of enzyme. Dilutions and assay were carried out in 96-well "half-area" plates. The enzyme with various concentrations of test compounds were dissolved in DPBS containing 1% w/v BSA and diluted in 50 μl volumes; 10 μl aliquots in triplicate were transferred to another plate for the enzyme assay. The reactions were initiated by the addition of 25 μl/well of buffer containing 50 mM Tris.cndot.Cl (pH 8.0), 75 mM KCl, 1 mM dithiothreitol, 2 mM MgCl2, 5 μg/ml poly(A), 2.5 μg/ml oligo (dT), 10 μCi/ml ^32 p TTP with or without unlabeled TTP. […] TTP incorporation was measured by spotting 20 μl of the reaction cocktail onto DE81 paper, washing the paper with 4×5 min washes of 300 mM NaCl and 30 mM sodium citrate (pH 7.0), drying the paper, and counting the paper by liquid scintillation counting. The assays performed with oltipraz and 1,2-dithiole-3-thione contained 0.29% final concentration DMSO. This concentration of DMSO had no effect on RT activity.

For series [2], the system named is HIV-1 (HTLVIIIB). As to the kind of experiment: microbe, parasite or virus in culture. In kind it is cell-based. The settings on record: H9 cells; for IC50: Human immunodeficiency virus 1.
Protocol: (§3) The effects for test compounds were assessed by means of both IFA and p24 release. In general, the following protocol was followed: H9 cells were infected with HIV-1 at 1000 50% infective doses of viruses/10^6 cells. Virus was allowed to adsorb for 1 h, after which unadsorbed virus was removed by centrifugation. The cells were resuspended and washed twice with PBS (without Ca^+2 or Mg^+2 salts) and centrifuged to collect the cell pellet (150×g×10 min). Cells were suspended in fresh medium and added at a final cell density of 500,000 cells/ml in a 96-well plate with media containing 0.1% DMSO and various concentrations of test compounds. The cells were re-fed freshly prepared media containing 0.1% DMSO±test compounds on day four (for preinduction experiments, cells were exposed to inducers on days -2, 0, and +4 days relative to infection). After seven days, cells were examined for cytoxicity by trypan blue exclusion, the degree of infection with HIV-1 by IFA, and the supernatants were assayed for p24 levels according to the manufacturer's directions. The IFA procedure can be summarized as follows: The cells were washed twice in PBS and were placed in 5 mm 12-well slides. After allowing the slides to dry and fixing the cells with acetone for 5 min, 10 μl of HIV-1 positive serum in 40 μl PBS was added to each well and allowed to incubate at 37° C. for 30 min. After incubation, the slides were washed twice with PBS and incubated at 37° C. for 30 min with 2.5 μl goat anti-human IgG-fluorescein isothiocyanate conjugate in 50 μl PBS containing 0.01% Evans Blue per well. The slides were then washed twice with PBS, dried, and mounted with 50% glycerol in PBS, and scored for the percentage of fluorescent cells by fluorescent microscopy.
Series [3] concerns the target T1, HIV-1 reverse transcriptase (RT). The series can be described thus: Time-dependent (irreversible) inhibition of HIV-1 reverse transcriptase after preincubation. In kind it is biochemical. The settings on record: kinetic behaviour. How it is done:
FIG. 6. […] RT was preincubated for the times indicated with oltipraz dissolved in DPBS containing 1 mg/ml bovine serum albumin, 0.13% DMSO, and either 4 μM TTP or 5 μg/ml poly(A):2.5 μg/ml oligo(dT). After incubation, 10 μl aliquots in triplicate were added to 25 μl of a reaction cocktail containing 4 μM TTP, 5 μg/ml poly(A), and 2.5 μg/ml oligo(dT) and assayed for TTP incorporation into DNA over 30 min. as described by Flexner, et al. (25). The insets are Kitz-Wilson transformations (41).
as §1, with “DMSO.” for “DMSO. This concentration of DMSO had no effect on RT activity.”

Series [4] concerns glutathione levels (GSH) in H9 cells. As to the kind of experiment: Elevation of glutathione (GSH) levels in H9 cells. The settings on record: dose- and time-dependent, H9 cells. In kind it is cell-based, human. How it is done: (§2) Five ml of medium was added to T-25 flasks and DMSO containing tests compounds were added to a final concentration of 0.1%. Control medium contained 0.1% DMSO. After the drugs were added, 5×10^6 cells in 5 ml of medium was added to each T-25 flask. The cells were grown at 37° C. in a humidified incubator supplemented with 5% CO2 until harvested (N=3 flasks/group). At the indicated times, cells were isolated by centrifugation (500×g×10 min) and were washed three times by adding 10 ml of ice-cold DPBS, mixing, and centrifuging in a refrigerated centrifuge (500×g×10 min) to isolate the cell pellets. The cells were then lysed by the addition of 400 μl of ice-cold DPBS containing 0.5% Triton X-100 and vortexing. Supernatants were then isolated by centrifuging the lysates (5000×g×20 min). Samples were kept on ice or refrigerated until the reagents for QR or GSH spectrophotometric assays were added to the aliquoted microtiter plates. QR levels were determined by aliquoting 10 μl/well of supernatant in a 96-well plate and measuring the activity by the assay described by Prochaska and Santamaria (20) except that the final NADP^+ concentration was 200 μM (21). Samples were assayed in quadruplicate, and dicoumarol inhibitable-rates (which generally represented less than 5% of the total rate) were also measured. Spectrophotometric blanks contained 10 μl of DPBS with 0.5% Triton X-100. For the GSH assay, 300 μl of sample was placed in a centricon-10microconcentrator and centrifuged (5000×g×45 min) until enough ultrafiltrate could be collected. 50 μl/well of sample in quadruplicate was placed in a 96 well "half-area" plate after which 20 μl of 1 mM Ellman's reagent dissolved in DPBS was added. The yellow color (22) developed within 5 min and was scanned with a uvmax microtiter scanner (Palo Alto, Calif.) at 405 nm. Spectrophotometric blanks contained 50 μl DPBS with 0.5% Triton X-100 and 20 μl of 1 mM Ellman's reagent in DPBS. The optical densities of the specimens were calibrated to a GSH standard curve. Protein contents were determined in 3 ml cuvettes by the Bradford method (23). The protein content in the ultrafiltrates employed for GSH determinations were negligible (<0.01 mg/ml).

In series [5] the test system is H9 cells. The series can be described thus: Cytotoxicity in H9 cells by trypan blue exclusion. The class given is cell-based, human.
Protocol: as §3
The subject of series [6] is quinone reductase (QR) in H9 cells. The series can be described thus: Elevation of quinone reductase (QR) in H9 cells. The settings on record: dose- and time-dependent, H9 cells. In kind it is cell-based, human. How it is done:
as §2
We confirmed that the induction of QR in microtiter wells mirrored our results in T-25 flasks by using the method of Prochaska and Santamaria (20). Medium (100 μl) containing 0.1% final concentration DMSO was added to all wells except columns designated to contain the highest concentration of drug or spectrophotometric blanks in duplicate sets of U-bottomed microtiter plates. 200 μl of media containing drug (final DMSO concentration=0.1%) was added to the empty column of wells and then diluted in 2-fold serial dilutions across. After the serial dilutions were performed, 100 μl of media containing 1×10^6 cells/ml was added to each well, and the plates were placed in a 37° C. incubator for 48 h. One set of plates was assayed as described (21) for QR activity, the other was assayed for cell number by the method for Alley et al. (24).

Setting [7] is: Exp 1, IFA, read-out: IC50 HIV-1 replication (Exp 1).
[8] abbreviates: Exp 2, IFA, read-out: IC50 HIV-1 replication (Exp 2).

On to `Cc1cn([C@H]2C[C@H](N=[N+]=[N-])[C@@H](COP(=O)(O)OP(=O)(O)OP(=O)(O)O)O2)c(=O)[nH]c1=O` [AZT triphosphate, 3'-azido-3'-deoxythymidine-5'-triphosphate], for which the “potency relative to oltipraz (reverse transcriptase)” value in series [1] is given as “approximately 1000 fold”.
`S=c1cc(-c2ccccc2)ss1` [compound 1]: the “IC50 HIV-1 replication (Exp 1)” value in series [2] (Exp 1, IFA) is listed as “Inactive”. Besides, the “IC50 HIV-1 replication (Exp 2)” value in series [2] (Exp 2, IFA) is “Inactive”.
For `COc1ccc(-c2cc(=S)ss2)cc1` [compound 2], the “IC50 HIV-1 replication (Exp 1)” value in series [2] (Exp 1, IFA) was “Inactive”. Further, the “IC50 HIV-1 replication (Exp 2)” value in series [2] (Exp 2, IFA) was “Inactive”.
As usually defined, the IC50 is the concentration at which inhibition is half-maximal. Take `O=c1cc(-c2cnccn2)ss1` [compound 3]: the “IC50 HIV-1 replication (Exp 2)” value in series [2] (Exp 2, IFA) is on record as “Inactive”. The IC50 in series [2] (setting [7]) worked out at 4 µM.
In the case of `Cc1ncc(-c2cc(=S)ss2)nc1C` [compound 4], in series [2] (Exp 1, IFA), the “IC50 HIV-1 replication (Exp 1)” value is recorded as “Inactive”. The “IC50 HIV-1 replication (Exp 2)” value in series [2] (Exp 2, IFA) is listed as “Inactive”.
As to `Cc1c(-c2ccccn2)ssc1=S` [compound 5], the IC50 in series [2] (setting [7]) stood at 3 µM; in series [2] (setting [8]), 10 µM.
With `Cc1c(-c2cccnc2)ssc1=S` [compound 6], in series [2] (Exp 2, IFA), the “IC50 HIV-1 replication (Exp 2)” value was “Inactive”. Further, in series [2] (setting [7]), the IC50 worked out at 10 µM.
On to `Cc1c(-c2ccncc2)ssc1=S` [compound 7], for which the concentration for half-maximal inhibition (IC50) in series [2] (setting [7]) and in series [2] (setting [8]) was 60 µM in each case.
For `Cc1c(-c2cccnn2)ssc1=S` [compound 8], the IC50 in series [2] (setting [7]) came out at 2 µM; in series [2] (setting [8]) it was 4 µM.
`Cc1c(-c2cccs2)ssc1=S` [compound 9, 4-methyl-5-(2-thiofuranyl)-1,2-dithiole-3-thione]: the “irreversible inhibition of reverse transcriptase” value in series [3] was “behaves kinetically as an irreversible inhibitor of reverse transcriptase”. The half-inhibitory concentration (IC50) is 0.4 µM in series [2] (setting [7]); 2 µM in series [2] (setting [8]); 1.8 ± 0.7 µM in series [2] (N=5 independent experiments, IFA, read-out: IC50 HIV-1 replication).
For `Cc1c(C=Cc2cnccn2)ssc1=S` [compound 10], the half-maximal inhibitory concentration (IC50) in series [2] (setting [7]) and in series [2] (setting [8]) was over 60 µM each time.
As for `Cc1c(-c2cnccn2)ssc1=O` [compound 12], the “IC50 HIV-1 replication (Exp 2)” value in series [2] (Exp 2, IFA) was “Inactive”. The 50% inhibitory concentration (IC50) in series [2] (setting [7]) came to 10 µM.
Take `OCc1c(-c2cnccn2)ssc1=S` [compound 13]: the IC50 in series [2] (setting [7]) turned out to be 0.4 µM; in series [2] (setting [8]) it was 0.2 µM.
For the compound `CCc1c(-c2cnccn2)ssc1=S` [compound 14], the IC50 in series [2] (setting [7]) and in series [2] (setting [8]) was 15 µM throughout.
On to `CCCCc1c(-c2cnccn2)ssc1=S` [compound 15], for which the IC50 in series [2] (setting [7]) and in series [2] (setting [8]) was 2 µM each time.
As for `CCOC(=O)c1c(-c2ccccn2)ssc1=S` [compound 16], the figures for the IC50 in series [2] (setting [7]) and in series [2] (setting [8]) were 1 µM and 4 µM, respectively.
The matching figures for `CCOC(=O)c1c(-c2ccncc2)ssc1=S` [compound 17]: 15 µM and over 60 µM.
Consider `CC(C)c1ccc(Nc2ssc(=S)c2Cl)cc1` [compound 18], for which the IC50 in series [2] (setting [7]) is 0.4 µM; in series [2] (setting [8]), over 60 µM.
`CC(C)c1ccc(Nc2ssc(=O)c2Cl)cc1` [compound 19]: the half-inhibitory concentration (IC50) in series [2] (setting [7]) is over 60 µM; in series [2] (setting [8]) it was 1 µM.
In the same order, the values of `CCOC(=O)Cc1c(-c2cncnc2)ssc1=S` [compound 20] are over 60 µM and over 60 µM.
Consider `CC(C)N(C(=O)Cc1c(-c2cncnc2)ssc1=S)C(C)C` [compound 21], for which the 50% inhibitory concentration (IC50) in series [2] (setting [7]) was 1 µM; in series [2] (setting [8]), over 60 µM.
`S=c1ssc(-c2cccnn2)c1CCc1ccccc1` [compound 22]: the values for the IC50 in series [2] (setting [7]) and in series [2] (setting [8]) were 0.4 µM and over 60 µM, respectively.
As for `CN(C)CCCON=c1cc(-c2ccncc2)ss1` [compound 23], the IC50 was 0.4 µM in series [2] (setting [7]) and over 60 µM in series [2] (setting [8]).
`CCCCc1c(-c2ccc(N(C)C)nn2)ssc1=S` [compound 24]: the “IC50 HIV-1 replication (Exp 1)” value in series [2] (Exp 1, IFA) is recorded as “Inactive”. For the same compound, the “IC50 HIV-1 replication (Exp 2)” value in series [2] (Exp 2, IFA) was “Inactive”.
Consider `COC(=O)/C=C/C(=O)OC` [dimethyl fumarate], for which the “inhibition of HIV-1 replication” value in series [2] (up to 60 μM) was “inactive”. In addition, the “elevation of GSH” value in series [4] is “able to elevate both GSH and QR levels”. For the same compound, the “cytotoxicity at optimal inductive doses” value in series [5] is “non-cytotoxic”. Moreover, the “elevation of QR” value in series [6] is “able to elevate both GSH and QR levels”.
As for `CC(C)(C)c1cc(O)ccc1O` [tert-butylhydroquinone], in series [2] (up to 30 μM), the “inhibition of HIV-1 replication” value is “inactive”. For the same compound, the “elevation of GSH” value in series [4] is “able to elevate both GSH and QR levels”. Besides, the “cytotoxicity at optimal inductive doses” value in series [5] is reported as “non-cytotoxic”. Besides, in series [6], the “elevation of QR” value was “able to elevate both GSH and QR levels”.
